Assays:
Test in all cases: relative viability (nuclei count vs DMSO), 5 days (fraction); higher = more cells survive
TGX 221 + Linsitinib = compound: CC1=CN2C(=O)C=C(N=C2C(=C1)C(C)NC3=CC=CC=C3)N4CCOCC4 [TGX 221] + C[C@]1(O)C[C@@H](c2nc(-c3ccc4ccc(-c5ccccc5)nc4c3)c3c(N)nccn32)C1 [Linsitinib] (partner 1 µM)
In short: (§1)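 Relative viability was taken as the ratio of nuclei in treated wells to nuclei in vehicle wells. Lung cancer cell lines in 1536-well plates received compounds by pin tool one day after seeding, either one drug alone or a fixed anchor-drug dose plus five library-drug doses (not always all listed) in √10 steps. Nuclei were counted on 4× images after 5 days of treatment, and values are medians of duplicate plates.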

TGX 221 + Pictilisib = compound: CC1=CN2C(=O)C=C(N=C2C(=C1)C(C)NC3=CC=CC=C3)N4CCOCC4 [TGX 221] + CS(=O)(=O)N1CCN(Cc2cc3nc(-c4cccc5[nH]ncc45)nc(N4CCOCC4)c3s2)CC1 [Pictilisib] (partner 1 µM)
In short: as §1

[1] = compound: O=C(CCCCCCNC(=O)c1cnc(N(c2ccccc2)c2ccccc2)nc1)NO [Ricolinostat] + Nc1nc2[nH]cc(CCc3ccc(C(=O)N[C@@H](CCC(=O)O)C(=O)O)cc3)c2c(=O)[nH]1 [Pemetrexed] (partner 0.2 µM)
In short: as §1

[2] = compound: O=C(CCCCCCNC(=O)c1cnc(N(c2ccccc2)c2ccccc2)nc1)NO [Ricolinostat] + CC(=O)c1c(C)c2cnc(Nc3ccc(N4CCNCC4)cn3)nc2n(C2CCCC2)c1=O [Palbociclib] (partner 0.5 µM)
In short: as §1

| Cell Line | relative viability (TGX 221 + Linsitinib; first compound 0.08 µM) | relative viability (TGX 221 + Linsitinib; first compound 0.253 µM) | relative viability (TGX 221 + Linsitinib; first compound 0.8 µM) | relative viability (TGX 221 + Linsitinib; first compound 2.53 µM) | relative viability (TGX 221 + Linsitinib; first compound 8 µM) | relative viability (TGX 221 + Pictilisib; first compound 0.08 µM) | relative viability (TGX 221 + Pictilisib; first compound 0.253 µM) | relative viability (TGX 221 + Pictilisib; first compound 0.8 µM) | relative viability (TGX 221 + Pictilisib; first compound 2.53 µM) | relative viability (TGX 221 + Pictilisib; first compound 8 µM) | relative viability ([1]; first compound 0.08 µM) | relative viability ([1]; first compound 0.253 µM) | relative viability ([1]; first compound 0.8 µM) | relative viability ([1]; first compound 2.53 µM) | relative viability ([2]; first compound 0.08 µM) | relative viability ([2]; first compound 0.253 µM) | relative viability ([2]; first compound 0.8 µM) | relative viability ([2]; first compound 2.53 µM) |
| --- | --- | --- | --- | --- | --- | --- | --- | --- | --- | --- | --- | --- | --- | --- | --- | --- | --- | --- |
| NCI-H1975 | 0.843 | 0.778 | 0.902 | 0.943 | 0.697 | 0.282 | 0.289 | 0.271 | 0.229 | 0.285 | 0.329 | 0.279 | 0.277 | 0.269 | 0.709 | 0.607 | 0.607 | 0.471 |
| NCI-H1993 | 0.806 | 0.774 | 0.701 | 0.641 | 0.735 | 0.709 | 0.886 | 0.759 | 0.864 | 0.787 | 0.549 | 0.581 | 0.615 | 0.547 | 0.614 | 0.67 | 0.664 | 0.514 |
| NCI-H2009 | 1.22 | 1.13 | 1.03 | 0.994 | 0.809 | 0.814 | 0.746 | 0.893 | 0.774 | 0.662 | 0.977 | 1.02 | 0.965 | 0.92 | 0.164 | 0.202 | 0.222 | 0.296 |
| NCI-H2023 | 0.546 | 0.469 | 0.395 | 0.321 | 0.218 | 0.23 | 0.244 | 0.252 | 0.215 | 0.228 | 0.196 | 0.192 | 0.208 | 0.163 | 0.415 | 0.328 | 0.42 | 0.397 |
| NCI-H2085 | 0.947 | 0.774 | 0.673 | 0.309 | 0.408 | 0.424 | 0.444 | 0.439 | 0.425 | 0.46 |  | 0.799 | 0.738 | 0.758 |  | 0.461 | 0.426 | 0.478 |
| NCI-H2087 | 1.07 | 1.05 | 1.16 | 1.03 | 0.94 | 0.989 | 0.966 | 0.883 | 0.811 | 0.87 | 0.656 | 0.646 | 0.608 | 0.584 | 0.263 | 0.165 | 0.178 | 0.0962 |
| NCI-H2126 | 0.632 | 0.604 | 0.579 | 0.576 | 0.593 | 0.452 | 0.498 | 0.488 | 0.458 | 0.518 | 0.509 | 0.708 | 0.619 | 0.583 | 0.347 | 0.347 | 0.353 | 0.363 |
| NCI-H2228 | 0.411 | 0.624 | 0.625 | 0.29 | 0.344 | 0.348 | 0.452 | 0.448 | 0.282 | 0.314 | 0.311 | 0.31 | 0.285 | 0.345 | 0.874 | 0.895 | 0.9 | 0.504 |
| NCI-H2347 | 0.931 | 0.972 | 0.936 | 0.885 | 0.786 | 0.608 | 0.798 | 0.433 | 0.58 | 0.428 | 0.409 | 0.382 | 0.429 | 0.449 | 0.487 | 0.371 | 0.294 | 0.408 |
| NCI-H2405 | 0.595 | 0.698 | 0.639 | 0.697 | 0.573 | 0.36 | 0.499 | 0.426 | 0.398 | 0.366 | 0.916 | 1.04 | 1.06 | 1.12 | 0.517 | 0.554 | 0.542 | 0.571 |
| NCI-H3122 | 1.01 | 1.05 | 1 | 1.02 | 0.986 | 0.619 | 0.581 | 0.635 | 0.574 | 0.581 | 0.18 | 0.205 | 0.207 | 0.198 | 0.149 | 0.208 | 0.186 | 0.235 |
| PC-3 [JPC-3] | 0.963 | 0.973 | 0.997 | 0.922 | 0.918 | 0.642 | 0.73 | 0.772 | 0.748 | 0.754 | 0.845 | 1.11 | 0.738 | 1 | 0.533 | 0.499 | 0.518 | 0.487 |
| PC-14 | 0.95 | 0.866 | 0.898 | 0.904 | 0.874 | 0.695 | 0.61 | 0.612 | 0.685 | 0.625 | 0.147 | 0.139 | 0.141 | 0.195 | 0.57 | 0.478 | 0.462 | 0.406 |
| RERF-LC-KJ | 0.803 | 0.845 | 0.852 | 0.721 | 0.747 | 0.488 | 0.57 | 0.551 | 0.466 | 0.481 | 0.492 | 0.427 | 0.447 | 0.374 | 1.02 | 1.21 | 1.25 | 0.902 |
| SK-LU-1 | 0.96 | 0.904 | 0.922 | 1.06 | 0.858 | 0.601 | 0.536 | 0.576 | 0.553 | 0.568 | 1.06 | 0.97 | 0.949 | 0.864 | 0.4 | 0.377 | 0.377 | 0.366 |
| SK-MES-1 | 1.05 | 1.03 | 1.03 | 0.913 | 0.573 | 0.406 | 0.363 | 0.304 | 0.328 | 0.289 | 0.878 | 0.982 | 0.876 | 0.91 | 0.369 | 0.308 | 0.339 | 0.397 |
| SW 1573 | 0.686 | 0.747 | 0.685 | 0.768 | 0.544 | 0.489 | 0.458 | 0.43 | 0.461 | 0.467 | 0.857 | 0.742 | 1.07 | 0.864 | 0.387 | 0.434 | 0.337 | 0.357 |
| UMC-11 | 0.966 | 0.979 | 1.13 | 0.987 | 1.04 | 0.742 | 0.783 | 0.787 | 0.723 | 0.831 | 0.751 | 0.767 | 0.728 | 0.374 | 0.368 | 0.338 | 0.339 | 0.295 |
